Experimental data: patent publication US9862679B2, “Potent and selective inhibitors of monoamine transporters; method of making; and use thereof” (priority 2013, dated 2018)

What was measured:
[1] = Phase I metabolic stability in mouse liver microsomes (NADPH); format: in vitro ADME; conditions: 10 μM
Method: (§1) Phase I and phase II metabolic stability assay for was conducted in mouse liver microsomes. For phase I metabolism, the reaction was carried out with 100 mM potassium phosphate buffer, pH 7.4, in the presence of NADPH regenerating system (1.3 mM NADPH, 3.3 mM glucose 6-phosphate, 3.3 mM MgCl2, 0.4 U/mL glucose-6-phosphate dehydrogenase, 50 μM sodium citrate). Reactions in duplicate were initiated by addition of the liver microsomes to the incubation mixture (compound final concentration was 10 μM; 0.5 mg/mL microsomes). For phase II glucuronidation reaction compound was added to TRIS-HCl buffer (50 mM, pH 7.5) with microsomes (0.5 mg/mL), along with MgCl2 (8 mM), and alamethicin (25 μg/mL) and pre-incubated at 37° C. The reaction was initiated (in duplicate) with UDPGA at a final concentration of 2 mM. Negative controls in the absence NADPH and UDPGA were carried for both phase I and phase II metabolism respectively, to determine the specific cofactor free degradation. […] At predetermined times (0, 15, 30 and 60 min) aliquots of the mixture were removed and the reaction quenched by addition of two times the volume of ice cold acetonitrile spiked with the internal standard. Compound disappearance was monitored over time using a liquid chromatography and tandem mass spectrometry (LC/MS/MS) method.
(§2) Compounds were separated on an Agilent 1290 UPLC system with a c18 column using a gradient run of 55:45-5:95 water:acetonitrile over 3.2 minutes and detected on an Agilent 6520 QTOF mass spectrometer.

Swiss Webster mice = experiment: Mouse locomotor activity test; conditions: up to 30 mg/kg, versus cocaine
[2] = Plasma pharmacokinetics in mice, 10 mg/kg i.v. and p.o.
Method: (§3) Plasma was harvested from blood by centrifugation. Additionally at two selected time points (i.e. 30 min and 2 h) brains were collected following both oral and IV dosing. Samples were extracted from plasma by a single one-step protein precipitation method (as described in bioanalysis section below). For brain tissue, whole brains were weighed and homogenized in two times the volume of acetonitrile, followed by vortexing and centrifugation. Once extracted, the samples were analyzed via LC/MS/MS (as described in bioanalysis section below). Non-compartmental-analysis module in WinNonlin™ (version 5.3) was used to assess pharmacokinetic parameters including maximal concentration (Cmax), time to Cmax (Tmax), area under the curve (AUClast), area extrapolated to infinity (AUC0-∞), terminal disposition rate constant (ke), and terminal half-life (t½).
(§4) Briefly, plasma samples were thawed on ice prior to extraction. Samples (50 μL) were extracted in 300 μL acetonitrile containing 1000 nM losartan as internal standard. For brain, 50 μL of the supernatant from homogenized tissue was extracted with 100 μL acetonitrile containing 1000 nM losartan as internal standard. Extracts were centrifuged at 16000×g at 4° C. for 10 minutes. Supernatants were transferred to a new siliconized tube and dried under N2 at 45° C. for 30 min. Samples were reconstituted with 100 μL of 30% acetonitrile, vortexed and centrifuged. Supernatants (95 μL) were transferred to a 250 μL polypropylene autosampler vials sealed with a Teflon cap and a volume of 10 μL was injected onto the ultra-performance liquid chromatography (UPLC) instrument for quantitative analysis using a temperature-controlled autosampler operating at 10° C.
(§5) The instrument was controlled by the Xcalibur software 2.3 (Thermo Scientific). Samples were introduced to the interface through Turbo Ion Spray with the temperature setting at 350° C.
(§6) Chromatographic analysis was performed using an Accela™ ultra high-performance system consisting of an analytical pump, and an autosampler coupled with TSQ Vantage mass spectrometer (Thermo Fisher Scientific Inc., Waltham Mass.).

[3] = Phase II (glucuronidation, UDPGA) metabolic stability in mouse liver microsomes; format: in vitro ADME
Method: as §1, §2

[4] = Negative control: mouse liver microsomes without cofactors; format: in vitro ADME; conditions: for Metabolic stability, Negative Control (% remaining): microsomes without cofactors
Method: as §1, §2

[5] = Brain concentrations in mice after IV and PO dosing at 10 mg/kg; conditions: for concentration at 0.5 h / concentration at 2 h: male, CD1, mouse, in vivo, 10 mg/kg
Method: as §3, §4, §5, §6

[6] = Metabolic stability in mouse plasma; format: in vitro ADME; conditions: for Metabolic stability, Plasma (% remaining): mouse plasma, 10 μM
Method: The metabolic stability was evaluated using mouse plasma and mouse liver microsomes.

[7] = male, CD1, mouse, in vivo, iv, 10 mg/kg
[8] = male, CD1, mouse, in vivo, po, 10 mg/kg

## C[C@]12CC[C@H]3[C@@H](CCC4=CC(=O)CC[C@@]43C)[C@@H]1CC[C@@H]2O [Testosterone, reference compound]
[1]; 0 min
  Metabolic stability, Phase I (% remaining): 100%
[1]; 60 min
  Metabolic stability, Phase I (% remaining): 0%

## Fc1ccc(C(SCCNCCCc2ccccc2)c2ccc(F)cc2)cc1 [Compound 4g, N-(2-((bis(4-fluorophenyl)methyl)thio)ethyl)-3-phenylpropan-1-amine]
Swiss Webster mice
  locomotor stimulation (ambulatory distance): does not produce locomotor stimulation
[2]; male, CD1, mouse, in vivo, 10 mg/kg, F % (absolute bioavailability), mouse, 10 mg/kg P.O. versus I.V.
  bioavailability: ~10%
[2]; [7]
  AUC(0-inf): 2040 µg·h/mL
  AUC(0-t): 1.96 µg·h/mL
  Tmax: 4.8 min
[2]; [8]
  AUC(0-inf): 203 µg·h/mL
  AUC(0-t): 0.155 µg·h/mL
  Tmax: 30 min
[2]; mouse plasma, 10 mg/kg I.V.
  Ke: 0.6952
[3]; 0 min
  Metabolic stability, Phase II (% remaining): 100%
[3]; 15 min
  Metabolic stability, Phase II (% remaining): 90%
[3]; 30 min
  Metabolic stability, Phase II (% remaining): 77%
[3]; 60 min
  Metabolic stability, Phase II (% remaining): 50%
[4]; 0 min
  Metabolic stability, Negative Control (% remaining): 100%
[4]; 15 min
  Metabolic stability, Negative Control (% remaining): 104%
[4]; 30 min
  Metabolic stability, Negative Control (% remaining): 97%
[4]; 60 min
  Metabolic stability, Negative Control (% remaining): 119%
[4]; mouse liver microsomes, no NADPH/UDPGA
  metabolism in microsomes without the cofactors: No metabolism was observed
[1]; 0 min
  Metabolic stability, Phase I (% remaining): 100%
[1]; 30 min
  Metabolic stability, Phase I (% remaining): 95%
[1]; 60 min
  Metabolic stability, Phase I (% remaining): 77%
[5]; iv
  concentration at 0.5 h: 4780 ng/g
  concentration at 2 h: 14100 ng/g
[5]; po
  concentration at 0.5 h: 369 ng/g
  concentration at 2 h: 223 ng/g
[5]; mouse, following both p.o. and i.v. dosing
  brain penetrability: excellent brain penetrability
[6]; 0 min
  Metabolic stability, Plasma (% remaining): 100%
[6]; 15 min
  Metabolic stability, Plasma (% remaining): 100%
[6]; 30 min
  Metabolic stability, Plasma (% remaining): 99%
[6]; 60 min
  Metabolic stability, Plasma (% remaining): 103%
[6]; over a period of 60 minutes
  stability in mouse plasma: stable
